The record followed here is PMC7305236, “The atypical chemokine receptor ACKR3/CXCR7 is a broad-spectrum scavenger for opioid peptides” (Nature Communications, 2020).

Type in all cases: cell-based
In one assay the target is T1, CXCR4 (Homo sapiens, UniProt P61073).
T1 construct: expressed in transfected cells; host or cells: U87, transient cotransfection of pNBe vectors

The next assay has as its system U87. In words: Figure S6 EC50 comparison, U87 cells + chemokine. Particulars: U87 cells + the labelled chemokine, titrated agonist not given, read-out: Ec50 (inset, Ec50 comparison).
The next assay has as its target T2, CXCR3A (Homo sapiens, UniProt P49682).
T2 construct: expressed in transfected cells; host or cells: U87 cells
T2 sequence (P49682 1-368): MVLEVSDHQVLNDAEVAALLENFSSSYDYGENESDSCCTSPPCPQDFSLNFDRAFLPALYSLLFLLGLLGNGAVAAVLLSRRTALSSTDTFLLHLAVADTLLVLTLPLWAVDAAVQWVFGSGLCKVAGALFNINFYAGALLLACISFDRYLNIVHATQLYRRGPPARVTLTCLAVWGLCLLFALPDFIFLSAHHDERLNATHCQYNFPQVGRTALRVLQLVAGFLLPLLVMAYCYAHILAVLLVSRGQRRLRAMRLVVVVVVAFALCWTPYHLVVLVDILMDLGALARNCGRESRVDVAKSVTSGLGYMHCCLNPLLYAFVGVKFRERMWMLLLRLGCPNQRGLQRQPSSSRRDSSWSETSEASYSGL
In words: Figure S1a: screen of opioid peptides on CXCR3A. Particulars: replicate 1.

Another assay relates to U87.ACKR3. The assay can be described thus: Figure S6 EC50 comparison, U87.ACKR3 cells + chemokine. To be noted: U87.ACKR3 cells + the labelled chemokine, titrated agonist not given, read-out: Ec50 (inset, Ec50 comparison).
A further assay has as its target T3, CXCR7 (Homo sapiens, UniProt P25106).
T3 construct: expressed in transfected cells; host or cells: U87 cells
The assay can be described thus: Figure S1a: screen of opioid peptides on CXCR7.

The nature of assay [1]: Figure 7g: values after +LIH383, +LIH inverse, +CXCL12, +CXCL10.
The target of assay [2] is T4, KOR (Homo sapiens, UniProt P41145). The assay can be described thus: Figure 6h, KOR, DMSO vs Bafilomycin treatment. The arrangement: expressed in transfected cells; host or cells: U87 (human glioblastoma). Particulars: n = 3 or 4 as in cell.
T4 sequence (P41145 whole entry): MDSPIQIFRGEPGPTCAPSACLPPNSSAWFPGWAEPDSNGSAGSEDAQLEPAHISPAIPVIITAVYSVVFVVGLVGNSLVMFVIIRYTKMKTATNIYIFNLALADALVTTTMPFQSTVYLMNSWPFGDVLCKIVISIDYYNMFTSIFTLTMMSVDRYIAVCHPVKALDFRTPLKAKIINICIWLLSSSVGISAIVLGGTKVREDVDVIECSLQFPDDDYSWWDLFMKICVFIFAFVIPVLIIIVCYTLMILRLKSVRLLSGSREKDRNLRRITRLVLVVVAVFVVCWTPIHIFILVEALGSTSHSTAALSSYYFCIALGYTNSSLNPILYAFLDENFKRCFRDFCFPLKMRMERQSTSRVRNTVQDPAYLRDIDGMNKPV
The target in assay [3] is T4, KOR. In words: Figure 6h, KOR level after ligand with DMSO or Bafilomycin. Details: expressed in transfected cells; host or cells: U87 (human glioblastoma).
Assay [4] is described as follows: Figure 7f: response to FBS, CXCL12, opioid peptides and LIH383 relative to Medium. Particulars: Medium about 1.

pEC50: −log10 of the molar value. Read-outs that look alike come from different tables or passages of the source.

T1 sequence (P61073 whole entry): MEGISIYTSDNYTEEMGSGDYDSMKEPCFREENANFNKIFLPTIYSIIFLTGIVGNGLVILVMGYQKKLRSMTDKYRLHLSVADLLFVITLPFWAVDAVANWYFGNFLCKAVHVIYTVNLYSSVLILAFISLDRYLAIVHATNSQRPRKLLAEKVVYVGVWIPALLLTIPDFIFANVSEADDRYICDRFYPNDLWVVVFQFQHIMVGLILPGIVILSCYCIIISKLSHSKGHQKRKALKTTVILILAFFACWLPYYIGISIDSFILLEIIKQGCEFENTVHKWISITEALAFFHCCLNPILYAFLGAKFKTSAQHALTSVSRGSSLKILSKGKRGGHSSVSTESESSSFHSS
T3 sequence (P25106 whole entry): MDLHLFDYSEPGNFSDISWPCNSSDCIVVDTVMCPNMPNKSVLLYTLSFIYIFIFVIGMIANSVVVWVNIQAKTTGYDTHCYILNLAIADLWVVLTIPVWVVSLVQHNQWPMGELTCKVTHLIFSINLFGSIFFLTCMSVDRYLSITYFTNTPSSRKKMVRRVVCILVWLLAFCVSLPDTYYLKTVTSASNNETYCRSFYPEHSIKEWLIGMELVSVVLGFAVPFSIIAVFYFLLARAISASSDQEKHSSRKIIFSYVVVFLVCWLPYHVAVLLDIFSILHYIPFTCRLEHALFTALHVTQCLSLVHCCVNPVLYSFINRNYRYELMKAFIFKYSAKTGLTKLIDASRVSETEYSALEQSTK

As a reminder, the pEC50 is −log10 of the EC50, conventionally taken in molar units. On to CXCL10, for which the “Figure S1a value, CXCR4” value was determined as 64.0305 with CXCR4 (replicate 1) and 102.577 with CXCR4 (replicate 2). Further, the negative-log EC50 (pEC50) is 8.17 with U87 (replicate 1); 8.03 with U87 (replicate 2); 7.85 in the assay with U87 (replicate 3); 7.76 with U87.ACKR3 (replicate 1); 7.74 in the assay with U87.ACKR3 (replicate 2); 7.71 in the assay on U87.ACKR3 (replicate 3). Also, the negative logarithm of the EC50 (pEC50) in the assay on U87.ACKR3 (replicate 4) is 7.54. Besides, the “Figure S1a value, CXCR3A” value in the assay with CXCR3A worked out at 79.87. Further, the “Figure S1a value, CXCR7” value with CXCR7 (replicate 1) was found to be 93.7533; with CXCR7 (replicate 2), 74.5914. In addition, the “Figure 7g value” in assay [1] (replicate 1) is 43.9358; in assay [1] (replicate 2), 53.1833; in assay [1] (replicate 3) it was 71.6583; in [1] (replicate 4), 66.9981.

Take CXCL12: the figures for the “Figure S1a value, CXCR4” value with CXCR4 (replicate 1) and in the assay with CXCR4 (replicate 2) were 122.173 and 86.6576, respectively. The negative logarithm of the EC50 (pEC50) with U87 (replicate 1) was 8.54; in the assay on U87 (replicate 2), 7.96; in the assay with U87 (replicate 3) it was 8.22; in the assay on U87 (replicate 4), 8.25; in the assay on U87.ACKR3 (replicate 1) it was 8.13; in the assay with U87.ACKR3 (replicate 2), 8.03. The negative-log EC50 (pEC50) with U87.ACKR3 (replicate 3) is 7.88. In the assay with CXCR3A, the “Figure S1a value, CXCR3A” value came out at 103.792. Moreover, the “Mean ± SEM (Figure 6h, KOR)” value with KOR [2] ('DMSO vs Bafilomycin treatment') is listed as 112,6 ± 3,88, n=4; in the assay with KOR [2] (first of two columns under 'DMSO vs Bafilomycin treatment' (presumably DMSO)) it was 107,9 ± 5,673, n=4. In addition, the “KOR level after ligand (Figure 6h)” value with KOR [3] (Bafilomycin, replicate 1) is given as 115.399; with KOR [3] (Bafilomycin, replicate 2) it was 101.029; in the assay with KOR [3] (Bafilomycin, replicate 3), 116.035; with KOR [3] (Bafilomycin, replicate 4) it was 117.81; in the assay with KOR [3] (DMSO, replicate 1), 95.0504; with KOR [3] (DMSO, replicate 3), 120.17. The “KOR level after ligand (Figure 6h)” value with KOR [3] (DMSO, replicate 4) is recorded as 114.207. The entries for the “Figure 7f value” in assay [4] (replicate 1), in assay [4] (replicate 2) and in [4] (replicate 4) were 0.8915, 0.9254 and 0.9153, respectively. The “Figure 7g value” in assay [1] (replicate 1) amounted to 102.594; in assay [1] (replicate 2), 103.187; in assay [1] (replicate 3), 90.4001; in [1] (replicate 4) it was 88.8058.
